Data taken from patent publication US20260274892A1, “MACROCYCLIC BROAD SPECTRUM ANTIBIOTICS” (RQx Pharmaceuticals, Inc., priority 2017, published 2026).

System: Escherichia coli ATCC 25922
Experiment: Minimum inhibitory concentration (MIC), CLSI broth micro-dilution, E. coli
Assay type: cell-based
Details: Escherichia coli
How it was run: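 Colonies grown 20 h at 35° C on Trypticase Soy agar (MRSA) or Luria agar (E. coli) were suspended in cation-adjusted Mueller Hinton broth with 0.002% Tween-80. Suspensions were added at OD600 0.0005 to 10-point twofold compound dilutions, then incubated 22 h at 35° C.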

[1] = ATCC25922, Table 6, cation adjusted Mueller Hinton Broth + 0.002% Tween-80, 35° C., 22 hours

SMILES	MIC [1] [µM]	further results
Cc1cc(-c2ccc(C(C)(C)C)cc2)ncc1C(=O)N[C@@H](CCN)C(=O)N(C)[C@@H]1C(=O)N[C@@H](C)C(=O)N[C@H](C(=O)NCC#N)Cc2ccc(OCCN)c(c2)-c2cc1ccc2OCCN (racemic) [Compound 215, rac-(8S,11S,14S)-3,18-bis(2-aminoethoxy)-N-(cyanomethyl)-11-methyl-14-[methyl-[rac-(2S)-4-amino-2-[[6-(4-tert-butylphenyl)-4-methyl-pyridine-3-carbonyl]amino]butanoyl]amino]-10,13-dioxo-9,12-diazatricyclo[13.3.1.12,6]icosa-1(18),2(20),3,5,15(19),16-hexaene-8-carboxamide]	0.13	
Cc1nc(-c2ccc(C3=CCCCC3)cc2)nc(C)c1C(=O)N[C@@H](CCN)C(=O)N(C)[C@@H]1C(=O)N[C@@H](C)C(=O)N[C@H](C(=O)NCC#N)Cc2ccc(OCCN)c(c2)-c2cc1ccc2OCCN (racemic) [Compound 303, rac-(8S,11S,14S)-3,18-bis(2-aminoethoxy)-N-(cyanomethyl)-11-methyl-14-[methyl-[rac-(2S)-4-amino-2-[[2-[4-(cyclohexen-1-yl)phenyl]-4,6-dimethyl-pyrimidine-5-carbonyl]amino]butanoyl]amino]-10,13-dioxo-9,12-diazatricyclo[13.3.1.12,6]icosa-1(18),2(20),3,5,15(19),16-hexaene-8-carboxamide]		MIC (ATCC25922, 22 h, Table 6, cation adjusted Mueller Hinton Broth + 0.002% Tween-80, 35° C.): 0.13 µM
C[C@@H]1NC(=O)[C@@H](N(C)C(=O)[C@H](CCN)NC(=O)c2cc([N+](=O)[O-])c(-c3ccc(C(C)(C)C)cc3)nc2N)c2ccc(OCCN)c(c2)-c2cc(ccc2OCCN)C[C@@H](C(=O)NCC#N)NC1=O (racemic) [Compound 415, rac-(8S,11S,14S)-3,18-bis(2-aminoethoxy)-N-(cyanomethyl)-11-methyl-14-[methyl-[rac-(2S)-4-amino-2-[[2-amino-6-(4-tert-butylphenyl)-5-nitro-pyridine-3-carbonyl]amino]butanoyl]amino]-10,13-dioxo-9,12-diazatricyclo[13.3.1.12,6]icosa-1(18),2(20),3,5,15(19),16-hexaene-8-carboxamide]	1.5	
Cc1nc(-c2ccc(C(C)(C)C)cc2)nc(C)c1C(=O)N[C@@H](CCN)C(=O)N(C)[C@@H]1C(=O)N[C@@H](C)C(=O)N[C@H](C(=O)NCC#N)Cc2ccc(OCCN)c(c2)-c2cc1ccc2OC[C@H](O)CN (racemic) [Compound 571, rac-(8S,11S,14S)-3-(2-aminoethoxy)-N-(cyanomethyl)-11-methyl-14-[methyl-[rac-(2S)-4-amino-2-[[2-(4-tert-butylphenyl)-4,6-dimethyl-pyrimidine-5-carbonyl]amino]butanoyl]amino]-10,13-dioxo-18-[rac-(2R)-3-amino-2-hydroxy-propoxy]-9,12-diazatricyclo[13.3.1.12,6]icosa-1(18),2(20),3,5,15(19),16-hexaene-8-carboxamide]		MIC (ATCC25922, 22 h, Table 7, cation adjusted Mueller Hinton Broth + 0.002% Tween-80, 35° C.): 0.094 µM
Cc1nc(-c2ccc(OC3(C)CC3)cc2)nc(C)c1C(=O)N[C@@H](CCN)C(=O)N(C)[C@@H]1C(=O)N[C@@H](C)C(=O)N[C@H](C(=O)NCC#N)Cc2ccc(OCCN)c(c2)-c2cc1ccc2OCCN (racemic) [Compound 344, rac-(8S,11S,14S)-3,18-bis(2-aminoethoxy)-N-(cyanomethyl)-11-methyl-14-[methyl-[rac-(2S)-4-amino-2-[[4,6-dimethyl-2-[4-(1-methylcyclopropoxy)phenyl]pyrimidine-5-carbonyl]amino]butanoyl]amino]-10,13-dioxo-9,12-diazatricyclo[13.3.1.12,6]icosa-1(18),2(20),3,5,15(19),16-hexaene-8-carboxamide]	0.38	
